Assay results from US6362236B1, “Inhibition of lipoprotein oxidation” (Warner-Lambert Company, priority 1997, dated 2002).

Tests used:
[1] = tested on: HDL-associated paraoxonase; assay: HDL-associated paraoxonase activity after CuSO4-induced HDL oxidation; format: biochemical, human; details: for Paraoxonase Specific Activity: after CuSO4-induced HDL oxidation, before incubation 50±3; for protection of HDL-associated paraoxonase: HDL oxidized with CuSO4, versus HDL oxidized without drug
Source text: . One unit of paraoxonase activity produces 1 nmol of p-nitrophenol per minute.

[2] = Free radical scavenging capacity (DPPH assay); details: 20 μM; after 300 seconds of incubation
Experimental: Free radical scavenging capacity—The free radical scavenging capacities of the drugs were analyzed by the 1,1-diphenyl-2-picryl-hydrazyl (DPPH) assay. Each drug (20 μM) was mixed with 3 mL of 0.1 nmol DPPH/1 (in ethanol). The time course of the change in the optical density at 517 nm was then kinetically monitored.

LDL [3] = assay: LDL oxidation in all oxidative systems studied (CuSO4, AAPH, J-774A.1 macrophages), summary statements; format: biochemical, human; details: for inhibition of lipid peroxidation induced by copper ions, AAPH or J-774A.1 macrophages: pharmacological concentrations, summary over systems; for inhibition of LDL oxidation in all oxidative systems studied (in words): CuSO4, AAPH and J-774A.1 macrophage systems
VLDL [4] = assay: AAPH-induced VLDL oxidation; details: for inhibition of VLDL oxidation (TBARS), AAPH oxidative system: 10 μM compound, 4 hours at 37° C.; for VLDL-associated peroxide content, AAPH system: control VLDL 2169±329
HDL = assay: CuSO4-induced HDL oxidation; details: for CuSO4-Induced HDL Oxidation, MDA / CuSO4-Induced HDL Oxidation, Peroxides: 10 μM drug, 10 μM CuSO4, 4 hours at 37° C.; for CuSO4-Induced HDL Oxidation, MDA: Control 9.1 ± 0.1; for CuSO4-Induced HDL Oxidation, Peroxides: Control 122 ± 14; for inhibition of HDL oxidation in the presence of CuSO4: 10 μM CuSO4
VLDL [5] = assay: Copper ion (CuSO4)-induced VLDL oxidation; details: for inhibition of VLDL oxidation (TBARS), copper ion oxidative system: 10 μM compound, 4 hours at 37° C.; for VLDL-associated peroxide content, CuSO4 system: control VLDL 1818±333
LDL [6] = assay: Copper ion (CuSO4)-induced LDL oxidation; format: biochemical, human; details: for inhibition of LDL oxidation measured by the TBARS assay, CuSO4 system: 10 μM compound, 10 μM CuSO4, 4 hours at 37° C., LDL 100 μg of protein/mL; for LDL-associated peroxides content, CuSO4 system: control LDL 710±51
LDL [7] = assay: AAPH (free radical generator)-induced LDL oxidation; format: biochemical, human; details: for inhibition of LDL oxidation measured by the TBARS assay, AAPH system: 10 μM compound, 5 mM AAPH, 4 hours at 37° C.; for LDL-associated peroxides content, AAPH system: control LDL 990±89
VLDL [8] = assay: Lipoprotein electrophoresis of VLDL after copper ion-induced oxidation; format: biochemical, human; details: 10 μM CuSO4
Experimental: Lipoprotein electrophoresis—Lipoproteins (100 μg protein/mL) were incubated without or with the drugs followed by oxidation in the presence of 10 μM CuSO4. Then, electrophoresis of the lipoproteins was performed on 1% agarose using a Hydragel-Lipo kit (Sebia, France).

[9] = tested on: J-774 A.1 murine macrophages-like cell line; details: 10 μM compound; J-774 A.1 cells, 2 μM CuSO4, 20 hours
Experimental: The macrophages were grown in Dulbecco's Modified Eagles Medium (DMEM) supplemented with 5% heat inactivated fetal calf serum (FCS). For the lipoprotein oxidation studies, cells (1×10^6/35 mm dish) were incubated with LDL (100 μg of protein/mL) in RPMI medium (without phenol red) in the presence of 2 μM CuSO4 for 20 hours at 37° C. in the incubator. Control LDL was also incubated in a cell-free system under the same conditions. At the end of the incubation period, the extent of LDL oxidation was measured in the medium (after centrifugation at 1000×g for 10 minutes) by the TBARS assay. Cell-mediated oxidation of LDL was calculated by subtracting the values obtained in the cell-free system from those obtained with the cells.

[10] = Experimental: For the lipid peroxidation experiments, 500 μL of membrane vesicles were enriched with dilinoleoyl phosphatidylcholine (DLPC) at a concentration of 1.0 mg DLPC/mL. […] The extent of lipid peroxidation in each sample was determined by a spectrophotometric assay for lipid peroxides in serum lipoproteins using a color reagent known as CHOD-iodide (Merck, Darmstadt, FRG, Merck Cat. No. 14106). The color reagent has the following composition:
The concentration of triiodide formed was measured spectrophotometrically according to the formula (L=lipoprotein) [formula]
To each of the withdrawn aliquots of membrane vesicles was added 1.0 mL of the CHOD color reagent, and the sample was incubated in the absence of light for 4 hours. […] Lipid peroxide formation was measured in triplicate and values were expressed as mean±SD. The significance of differences between results from different experimental conditions was tested using the two-tailed student t-test.

## CC(C)c1c(C(=O)Nc2ccccc2)c(-c2ccccc2)c(-c2ccc(F)cc2)n1CC[C@@H](O)C[C@@H](O)CC(=O)O [atorvastatin, reference compound]
[1]; Table 1, Control 26 ± 2
  Paraoxonase Specific Activity: 29 ± 4 nmoL/mg HDL Protein/min
[2]
  reduction in the absorbance at 517 nm (DPPH assay): not by atorvastatin
LDL [3]
  inhibition of lipid peroxidation induced by copper ions, AAPH or J-774A.1 macrophages: not inhibited
VLDL [4]
  inhibition of VLDL oxidation (TBARS), AAPH oxidative system: no effect
HDL; Table 1
  CuSO4-Induced HDL Oxidation, MDA: 9.6 ± 0.5 nmoL/mg HDL Protein
  CuSO4-Induced HDL Oxidation, Peroxides: 122 ± 15 nmoL/mg HDL Protein
VLDL [5]
  inhibition of VLDL oxidation (TBARS), copper ion oxidative system: no effect

## Cc1ccc(C)c(OCCCC(C)(C)C(=O)O)c1 [gemfibrozil, reference compound]
LDL [6]; gemfibrozil experiment, LDL alone 60±9
  lag time for the initiation of LDL oxidation (conjugated dienes formation): 60 ± 9 min
[1]
  protection of HDL-associated paraoxonase: no effect
[1]; Table 2, Control 26 ± 3
  Paraoxonase Specific Activity: 27 ± 5 nmoL/mg HDL Protein/min
[2]
  reduction in the absorbance at 517 nm (DPPH assay): not gemfibrozil itself
LDL [3]
  inhibition of lipid peroxidation induced by copper ions, AAPH or J-774A.1 macrophages: not inhibited
HDL
  inhibition of HDL oxidation in the presence of CuSO4: no effect
HDL; Table 2
  CuSO4-Induced HDL Oxidation, MDA: 8.2 ± 0.4 nmoL/mg HDL Protein
  CuSO4-Induced HDL Oxidation, Peroxides: 134 ± 13 nmoL/mg HDL Protein

## CC(C)c1c(C(=O)Nc2ccccc2O)c(-c2ccccc2)c(-c2ccc(F)cc2)n1CC[C@@H](O)C[C@@H](O)CC(=O)O [ortho-hydroxy metabolite, ortho-hydroxy atorvastatin]
LDL [6]
  inhibition of LDL oxidation measured by the TBARS assay, CuSO4 system: 73%
  LDL-associated peroxides content, CuSO4 system: 192±15 nmol/mg LDL protein
LDL [6]; metabolite I of gemfibrozil 3 μM, ortho-hydroxy metabolite of atorvastatin 4 μM, alone or in combination, 10 μM CuSO4, 4 hours
  inhibitory effect on copper ion-induced LDL oxidation (TBARS): 43%
LDL [7]
  inhibition of LDL oxidation measured by the TBARS assay, AAPH system: 44%
  LDL-associated peroxides content, AAPH system: 554±32 nmol/mg LDL protein
[1]
  protection of HDL-associated paraoxonase: 54%
[1]; Table 1, Control 26 ± 2
  Paraoxonase Specific Activity: 40 ± 4 nmoL/mg HDL Protein/min
[2]
  reduction in the absorbance at 517 nm (DPPH assay): 37%
VLDL [8]
  lipoprotein electrophoretic migration of oxidized VLDL: reduce lipoprotein electrophoretic migration
LDL [3]
  inhibition of LDL oxidation in all oxidative systems studied (in words): inhibited
[9]
  inhibition of LDL oxidation measured by the TBARS assay, macrophage system: 50%
VLDL [4]
  inhibition of VLDL oxidation (TBARS), AAPH oxidative system: 43%
  VLDL-associated peroxide content, AAPH system: 1228±210 nmol VLDL protein
HDL
  inhibition of HDL oxidation in the presence of CuSO4: completely inhibited
HDL; Table 1
  CuSO4-Induced HDL Oxidation, MDA: 0.2 ± 0.1 nmoL/mg HDL Protein
  CuSO4-Induced HDL Oxidation, Peroxides: 9 ± 1 nmoL/mg HDL Protein
VLDL [5]
  inhibition of VLDL oxidation (TBARS), copper ion oxidative system: 79%
  VLDL-associated peroxide content, CuSO4 system: 242±22 nmol/mg VLDL protein

## CC(C)c1c(C(=O)Nc2ccc(O)cc2)c(-c2ccccc2)c(-c2ccc(F)cc2)n1CC[C@@H](O)C[C@@H](O)CC(=O)O [para-hydroxy metabolite, para-hydroxy atorvastatin]
LDL [6]
  inhibition of LDL oxidation measured by the TBARS assay, CuSO4 system: 60%
  LDL-associated peroxides content, CuSO4 system: 284±13 nmol/mg LDL protein
LDL [7]
  inhibition of LDL oxidation measured by the TBARS assay, AAPH system: 34%
  LDL-associated peroxides content, AAPH system: 624±38 nmol/mg LDL protein
[1]
  protection of HDL-associated paraoxonase: 27%
[1]; Table 1, Control 26 ± 2
  Paraoxonase Specific Activity: 33 ± 3 nmoL/mg HDL Protein/min
[2]
  reduction in the absorbance at 517 nm (DPPH assay): 28%
[10]; 10.0 μM compound
  inhibition of lipid peroxidation in membrane vesicles: 80%
[10]; FIG. 12
  comparative antioxidant potency versus Vitamin E and probucol: significantly more active
[10]; FIG. 13
  antioxidant activity under atherosclerotic-like conditions of elevated membrane cholesterol: increased
[10]; at concentrations as low as 10.0 μM
  levels of lipid peroxidation inhibited: > 10^2 μM
LDL [3]
  inhibition of LDL oxidation in all oxidative systems studied (in words): inhibited
[9]
  inhibition of LDL oxidation measured by the TBARS assay, macrophage system: 46%
VLDL [4]
  inhibition of VLDL oxidation (TBARS), AAPH oxidative system: 16%
  VLDL-associated peroxide content, AAPH system: 1819±228 nmol VLDL protein
HDL
  inhibition of HDL oxidation in the presence of CuSO4: about 50%
HDL; Table 1
  CuSO4-Induced HDL Oxidation, MDA: 4.5 ± 0.3 nmoL/mg HDL Protein
  CuSO4-Induced HDL Oxidation, Peroxides: 65 ± 9 nmoL/mg HDL Protein
VLDL [5]
  inhibition of VLDL oxidation (TBARS), copper ion oxidative system: 37%
  VLDL-associated peroxide content, CuSO4 system: 1088±310 nmol/mg VLDL protein

## vitamin E
[2]
  reduction in the absorbance at 517 nm (DPPH assay): 95%
